Experimental data from US9550738B2, “Bicyclic compounds as kinases inhibitors” (HangzhouDeRenYuCheng Biotechnology Ltd, priority 2012, dated 2017).

How the values were obtained:
Btk [1] = molecular target: T1, Btk (Homo sapiens, UniProt Q06187); test: In vitro Btk competition binding assay (kinase-tagged T7 phage, liganded affinity beads, qPCR readout); design: made in house; host or cells: E. coli BL21-derived host (T7 phage display) or HEK-293 cells; conditions: 11-point 3-fold serial dilution, top concentration 10,000 nM, Hill slope -1
T1 sequence (Q06187 whole entry, species assumed): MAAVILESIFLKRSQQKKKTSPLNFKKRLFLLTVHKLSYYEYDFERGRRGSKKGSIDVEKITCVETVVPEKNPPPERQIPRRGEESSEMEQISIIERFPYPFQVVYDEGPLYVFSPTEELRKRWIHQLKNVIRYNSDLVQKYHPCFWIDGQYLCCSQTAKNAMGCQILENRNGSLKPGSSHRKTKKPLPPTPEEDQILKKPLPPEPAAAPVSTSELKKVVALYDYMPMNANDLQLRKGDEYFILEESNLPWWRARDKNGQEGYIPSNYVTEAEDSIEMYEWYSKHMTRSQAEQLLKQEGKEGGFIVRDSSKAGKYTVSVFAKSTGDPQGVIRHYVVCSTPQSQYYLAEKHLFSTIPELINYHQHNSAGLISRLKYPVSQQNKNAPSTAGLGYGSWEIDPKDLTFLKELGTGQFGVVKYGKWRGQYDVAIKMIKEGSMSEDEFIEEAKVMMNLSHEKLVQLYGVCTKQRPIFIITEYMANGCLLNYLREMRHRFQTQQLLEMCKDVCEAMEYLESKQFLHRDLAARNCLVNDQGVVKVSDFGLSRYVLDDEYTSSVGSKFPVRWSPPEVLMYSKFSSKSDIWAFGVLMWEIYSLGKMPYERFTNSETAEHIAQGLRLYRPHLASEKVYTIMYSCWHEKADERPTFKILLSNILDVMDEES
Procedure: An in vitro assay which determines the ability of a test compound to inhibit Btk.
Kinase-tagged T7 phage strains were prepared in an E. coli host derived from the BL21 strain. E. coli were grown to log-phase and infected with T7 phage and incubated with shaking at 32° C. until lysis. The lysates were centrifuged and filtered to remove cell debris. The remaining kinases were produced in HEK-293 cells and subsequently tagged with DNA for qPCR detection. Streptavidin-coated magnetic beads were treated with biotinylated small molecule ligands for 30 minutes at room temperature to generate affinity resins for kinase assays. The liganded beads were blocked with excess biotin and washed with blocking buffer (SeaBlock (Pierce), 1% BSA, 0.05% Tween 20, 1 mM DTT) to remove unbound ligand and to reduce non-specific binding. Binding reactions were assembled by combining kinases, liganded affinity beads, and test compounds in 1× binding buffer (20% SeaBlock, 0.17× PBS, 0.05% Tween 20, 6 mM DTT). All reactions were performed in polystyrene 96-well plates in a final volume of 0.135 ml. The assay plates were incubated at room temperature with shaking for 1 hour and the affinity beads were washed with wash buffer (1× PBS, 0.05% Tween 20). The beads were then re-suspended in elution buffer (1× PBS, 0.05% Tween 20, 0.5 μM non-biotinylated affinity ligand) and incubated at room temperature with shaking for 30 minutes. The kinase concentration in the eluates was measured by qPCR.
An 11-point 3-fold serial dilution of each test compound was prepared in 100% DMSO at 100× final test concentration and subsequently diluted to 1× in the assay (final DMSO concentration=1%). Kds were determined using a compound top concentration=10,000 nM. If the initial Kd determined was <0.5 nM (the lowest concentration tested), the measurement was repeated with a serial dilution starting at a lower top concentration.
Binding constants (Kds) were calculated with a standard dose-response curve using the Hill equation: Response=Background+(Signal−Background)/(1+(Kd^Hill Slope/Dose^Hill Slope)). The Hill Slope was set to −1. Curves were fitted using a non-linear least square fit with the Levenberg-Marquardt algorithm.
The following Table 1 lists compounds representative of the invention and their corresponding inhibitory activity against Btk.

Btk [2] = molecular target: T1, Btk; test: Btk Ramos Cellular Assay (phosphorylation of the Btk substrate PLC gamma.2 after anti-IgM stimulation); type: cell-based; conditions: Ramos cells, 1 hour with compound at 1, 0.1, 0.01 or 0.001 μM, goat F(ab')2 Anti-Human IgM stimulation, blot for PLC gamma.2 phosphorylation; read-out: inhibition of Btk signaling in Ramos cellular assay, IC50
Procedure: Ramos cells were grown in suspension in T225 flasks, spun down, resuspended in 50 mL serum-free media and incubated for 1 hour. Compound was added to Ramos cells in serum free media to a final concentration of 1, 0.1, 0.01, or 0.001 μM. Ramos cells were incubated with compound for 1 hour, washed again and resuspended in 100 μL serum-free media. Cells were then stimulated with 1 μg of goat F(ab′)2 Anti-Human IgM and incubated on ice for 10 minutes to activate B cell receptor signaling pathways. After 10 minutes, the cells were washed once with PBS and then lysed on ice with Invitrogen Cell Extraction buffer. Sixteen μg total protein from lysates was loaded on gels and blots were probed for phosphorylation of the Btk substrate PLC gamma.2.

Row | Compound | Kd (Btk [1]) | IC50 (Btk [2])
1 | COc1cc2ncnc(Nc3ccc(Oc4ccccc4)cc3)c2cc1NC(=O)/C=C/CN(C)C [Compound 27, (E)-4-(dimethylamino)-N-(7-methoxy-4-((4-phenoxyphenyl)amino)quinazolin-6-yl)but-2-enamide] | 2.2 nM | < 100 nM
2 | CCOc1cc2ncnc(Nc3ccc(Oc4ccccc4)cc3)c2cc1NC(=O)/C=C/CN(C)C [Compound 31, (E)-4-(dimethylamino)-N-(7-ethoxy-4-((4-phenoxyphenyl)amino)quinazolin-6-yl)but-2-enamide] | 2.6 nM | < 100 nM
3 | CN(C)C/C=C/C(=O)Nc1cc2c(Nc3ccc(Oc4ccccc4)cc3)ncnc2cc1O[C@H]1CCOC1 [Compound 35, (S,E)-4-(dimethylamino)-N-(4-((4-phenoxyphenyl)amino)-7-((tetrahydrofuran-3-yl)oxy)quinazolin-6-yl)but-2-enamide] | < 100 nM | –

Second part, the molecule after the results:

Row | Kd (Btk [1]) | IC50 (Btk [2]) | Compound
4 | 2.3 nM | – | C=CC(=O)Nc1cc2c(Nc3ccc(Oc4ccccc4)cc3)ncnc2cc1OC [Compound 36, N-(7-methoxy-4-((4-phenoxyphenyl)amino)quinazolin-6-yl)acrylamide]
5 | 1.2 nM | – | C=CC(=O)Nc1cc2c(Nc3ccc(Oc4ccccc4)cc3)ncnc2cc1OCC [Compound 37, N-(7-ethoxy-4-(4-phenoxyphenylamino)quinazolin-6-yl)acrylamide]
6 | < 100 nM | – | C=CC(=O)Nc1cc2c(Nc3ccc(Oc4ccccc4)cc3)ncnc2cc1O[C@H]1CCOC1 [Compound 38, (S)-N-(4-((4-phenoxyphenyl)amino)-7-((tetrahydrofuran-3-yl)oxy)quinazolin-6-yl)acrylamide]
